According to ChEMBL document CHEMBL1201862, “PubChem BioAssay data set” (2004):
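Cells were grown in 96-well plates and exposed to each compound for 48 hours at five concentrations; endpoints were interpolated linearly between bracketing concentrations, or set to the highest concentration if not reached. GI50 = concentration required for 50% inhibition of growth.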 The source made the active and inactive calls. Rule as the data show it: active = GI50 up to about 1.1 µM and inactive = higher.

Columns and labels:
Test in all cases: NCI anticancer screen, dose series, 48 h
UACC-257 = system: UACC-257
UO-31 = system: UO-31
OVCAR-8 = system: OVCAR-8
NCI-H226 = system: NCI-H226
DU-145 = system: DU-145
SK-MEL-2 = system: SK-MEL-2
SN12C = system: SN12C
SF-539 = system: SF-539
786-0 = system: 786-0
NCI-H23 = system: NCI-H23
ACHN = system: ACHN
OVCAR-5 = system: OVCAR-5
HOP-62 = system: HOP-62
A498 = system: A498
MDA-MB-231 = system: MDA-MB-231
HCT-116 = system: HCT-116
EKVX = system: EKVX
U-251 = system: U-251
RPMI-8226 = system: RPMI-8226
IGROV-1 = system: IGROV-1

| Compound | GI50 (UACC-257) | GI50 (UO-31) | GI50 (OVCAR-8) | GI50 (NCI-H226) | GI50 (DU-145) | GI50 (SK-MEL-2) | GI50 (SN12C) | GI50 (SF-539) | GI50 (786-0) | GI50 (NCI-H23) | GI50 (ACHN) | GI50 (OVCAR-5) | GI50 (HOP-62) | GI50 (A498) | GI50 (MDA-MB-231) | GI50 (HCT-116) | GI50 (EKVX) | GI50 (U-251) | GI50 (RPMI-8226) | GI50 (IGROV-1) |
| --- | --- | --- | --- | --- | --- | --- | --- | --- | --- | --- | --- | --- | --- | --- | --- | --- | --- | --- | --- | --- |
| CCCCC(CCCC)=NNC(=S)SC | 24.9 µM (inactive) | 24.7 µM (inactive) | 19.2 µM (inactive) | 16.1 µM (inactive) | 30.3 µM (inactive) | 36.4 µM (inactive) | 34.2 µM (inactive) | 26.2 µM (inactive) | 34.8 µM (inactive) | 33.7 µM (inactive) | 29.6 µM (inactive) | 38.2 µM (inactive) | 40.6 µM (inactive) | 39.4 µM (inactive) | 28.3 µM (inactive) | 17.4 µM (inactive) | 87.3 µM (inactive) | 29.6 µM (inactive) | – | – |
| CCOP(=O)(OCC)C1CC(O)C(=O)N1 (stereo unspecified) | > 100 µM (inactive) | > 100 µM (inactive) | > 100 µM (inactive) | > 100 µM (inactive) | > 100 µM (inactive) | > 100 µM (inactive) | > 100 µM (inactive) | – | > 100 µM (inactive) | > 100 µM (inactive) | > 100 µM (inactive) | > 100 µM (inactive) | > 100 µM (inactive) | > 100 µM (inactive) | > 100 µM (inactive) | > 100 µM (inactive) | > 100 µM (inactive) | > 100 µM (inactive) | > 100 µM (inactive) | > 100 µM (inactive) |
| Cc1cc(=O)oc2c(CNC(C(=O)O)C(C)O)c(O)ccc12 (stereo unspecified) | > 100 µM (inactive) | > 100 µM (inactive) | > 100 µM (inactive) | > 100 µM (inactive) | > 100 µM (inactive) | > 100 µM (inactive) | > 100 µM (inactive) | > 100 µM (inactive) | > 100 µM (inactive) | > 100 µM (inactive) | > 100 µM (inactive) | > 100 µM (inactive) | > 100 µM (inactive) | – | > 100 µM (inactive) | > 100 µM (inactive) | > 100 µM (inactive) | > 100 µM (inactive) | > 100 µM (inactive) | > 100 µM (inactive) |
| COc1ccc2c(Cl)cc(NC(=S)Nc3ccccc3)nc2c1 | 60.8 µM (inactive) | – | 19.4 µM (inactive) | 55.5 µM (inactive) | 35.7 µM (inactive) | 22.4 µM (inactive) | 33.3 µM (inactive) | 32.6 µM (inactive) | 22.3 µM (inactive) | 23.4 µM (inactive) | 38.5 µM (inactive) | 30.1 µM (inactive) | 35.5 µM (inactive) | 21.1 µM (inactive) | 26.4 µM (inactive) | 20.2 µM (inactive) | 22 µM (inactive) | 20 µM (inactive) | 21.2 µM (inactive) | 20.8 µM (inactive) |
| O=C1/C(=N/c2ccccc2)Oc2cc(O)ccc21 | > 100 µM (inactive) | > 100 µM (inactive) | > 100 µM (inactive) | > 100 µM (inactive) | > 100 µM (inactive) | > 100 µM (inactive) | > 100 µM (inactive) | > 100 µM (inactive) | > 100 µM (inactive) | > 100 µM (inactive) | > 100 µM (inactive) | > 100 µM (inactive) | > 100 µM (inactive) | > 100 µM (inactive) | > 100 µM (inactive) | > 100 µM (inactive) | > 100 µM (inactive) | > 100 µM (inactive) | – | > 100 µM (inactive) |
| CSC1=N/C(=C\c2cccs2)C(=O)N1CN1CCOCC1 | – | 39.9 µM (inactive) | 28.8 µM (inactive) | 31.1 µM (inactive) | 65.9 µM (inactive) | 52.4 µM (inactive) | 5.2 µM (inactive) | – | 44.5 µM (inactive) | > 100 µM (inactive) | 37.2 µM (inactive) | > 100 µM (inactive) | 95.7 µM (inactive) | 64.9 µM (inactive) | 71.1 µM (inactive) | 31.3 µM (inactive) | 40.6 µM (inactive) | 85.5 µM (inactive) | 20 µM (inactive) | 41.5 µM (inactive) |
| CC(NC(=N)N)C(=O)O (stereo unspecified) | > 100 µM (inactive) | > 100 µM (inactive) | > 100 µM (inactive) | > 100 µM (inactive) | > 100 µM (inactive) | > 100 µM (inactive) | > 100 µM (inactive) | – | > 100 µM (inactive) | > 100 µM (inactive) | > 100 µM (inactive) | > 100 µM (inactive) | > 100 µM (inactive) | > 100 µM (inactive) | > 100 µM (inactive) | > 100 µM (inactive) | > 100 µM (inactive) | > 100 µM (inactive) | > 100 µM (inactive) | > 100 µM (inactive) |
| CCOC(=O)c1sc(N/N=C2\NC(=O)/C(=C/c3ccc([N+](=O)[O-])cc3)S2)nc1C | 15.6 µM (inactive) | 16.2 µM (inactive) | 22.4 µM (inactive) | 18.7 µM (inactive) | 16.8 µM (inactive) | 24.8 µM (inactive) | 30.4 µM (inactive) | 18.7 µM (inactive) | 16.7 µM (inactive) | 24.4 µM (inactive) | 21.8 µM (inactive) | 22.6 µM (inactive) | 17.2 µM (inactive) | 26.1 µM (inactive) | 19.5 µM (inactive) | 16.8 µM (inactive) | 15.7 µM (inactive) | 26.1 µM (inactive) | – | 14 µM (inactive) |
| S=C(c1c[nH]c2ccccc12)N1CCN(c2ccccc2)CC1 | > 100 µM (inactive) | – | 37.8 µM (inactive) | 7.76 µM (inactive) | > 100 µM (inactive) | > 100 µM (inactive) | 21.8 µM (inactive) | 71.6 µM (inactive) | 46.9 µM (inactive) | > 100 µM (inactive) | 87.1 µM (inactive) | > 100 µM (inactive) | 75.3 µM (inactive) | > 100 µM (inactive) | > 100 µM (inactive) | > 100 µM (inactive) | 19.4 µM (inactive) | 14.2 µM (inactive) | > 100 µM (inactive) | 7.11 µM (inactive) |
| c1ccc2c(c1)nc1n2sc2nc3ccccc3n21 | > 100 µM (inactive) | > 100 µM (inactive) | > 100 µM (inactive) | > 100 µM (inactive) | > 100 µM (inactive) | > 100 µM (inactive) | > 100 µM (inactive) | > 100 µM (inactive) | > 100 µM (inactive) | > 100 µM (inactive) | – | > 100 µM (inactive) | – | – | > 100 µM (inactive) | > 100 µM (inactive) | 54 µM (inactive) | > 100 µM (inactive) | > 100 µM (inactive) | > 100 µM (inactive) |
| COCCOCCOC1=CC(=O)c2c(O)ccc(O)c2C1=O | 0.397 µM (active) | 1.62 µM (inactive) | – | 2.3 µM (inactive) | 1.49 µM (inactive) | 1.84 µM (inactive) | 1.96 µM (inactive) | 2.07 µM (inactive) | 1.8 µM (inactive) | 1.69 µM (inactive) | 1.61 µM (inactive) | – | 1.71 µM (inactive) | 2.67 µM (inactive) | 1.49 µM (inactive) | 0.307 µM (active) | 2.86 µM (inactive) | – | 1.37 µM (inactive) | 1.82 µM (inactive) |
| O=C1C2=Cc3ccccc3OC2(O)Oc2cc(O)ccc21 (stereo unspecified) | > 100 µM (inactive) | – | > 100 µM (inactive) | > 100 µM (inactive) | > 100 µM (inactive) | > 100 µM (inactive) | > 100 µM (inactive) | > 100 µM (inactive) | > 100 µM (inactive) | > 100 µM (inactive) | > 100 µM (inactive) | > 100 µM (inactive) | > 100 µM (inactive) | > 100 µM (inactive) | > 100 µM (inactive) | > 100 µM (inactive) | > 100 µM (inactive) | > 100 µM (inactive) | > 100 µM (inactive) | > 100 µM (inactive) |
| C[C@]1(O)O[C@@H]2OCC[C@@H]2C2=C1C(=O)c1ccccc1C2=O | 17.1 µM (inactive) | 17.9 µM (inactive) | 15.3 µM (inactive) | – | 16.7 µM (inactive) | 17.4 µM (inactive) | 23 µM (inactive) | 17.3 µM (inactive) | 14.4 µM (inactive) | 14.7 µM (inactive) | 17.7 µM (inactive) | 17.3 µM (inactive) | 12.7 µM (inactive) | 14.1 µM (inactive) | 21.2 µM (inactive) | – | 20 µM (inactive) | 15.2 µM (inactive) | 3.62 µM (inactive) | 14.2 µM (inactive) |
| Cc1ccc(Cl)c2[nH]c(-c3ccccc3)cc(=O)c12 | 40.9 µM (inactive) | – | 50.9 µM (inactive) | 31.3 µM (inactive) | 43.7 µM (inactive) | 65.6 µM (inactive) | 46.5 µM (inactive) | – | 90.4 µM (inactive) | 46.7 µM (inactive) | 30.3 µM (inactive) | 76.4 µM (inactive) | 78.3 µM (inactive) | 25.6 µM (inactive) | 38.9 µM (inactive) | 29.2 µM (inactive) | 6.41 µM (inactive) | 77.8 µM (inactive) | 36.1 µM (inactive) | 33.7 µM (inactive) |
| COP(=O)(OC)[C@@](O)(c1ccccc1)[C@@H](O)[C@H](O)c1ccccc1 | > 100 µM (inactive) | > 100 µM (inactive) | > 100 µM (inactive) | > 100 µM (inactive) | > 100 µM (inactive) | > 100 µM (inactive) | > 100 µM (inactive) | 38.4 µM (inactive) | 98.6 µM (inactive) | > 100 µM (inactive) | > 100 µM (inactive) | > 100 µM (inactive) | – | > 100 µM (inactive) | > 100 µM (inactive) | 36 µM (inactive) | > 100 µM (inactive) | > 100 µM (inactive) | – | > 100 µM (inactive) |
